Here are results for 15 molecules from patent publication EP4159870A1, “SYSTEM FOR THE DETECTION OF INHIBITORS IN MILK” (Analytik in Milch Produktions- und Vertriebs-GmbH, priority 2021, dated 2023).

In brackets after ≈: the same amount, converted by molar mass.

The subject of series [1] is A. pallidus MHI 3391. As to the kind of experiment: BRT microbial test system with additives in the growth medium, A. pallidus indicator strain. Conditions: for incubated longer than corresponding control plates: additive in growth medium: 100 µg/l CIP, 100 µg/l MOX; for Concentrations detected in spiked milk samples: growth medium with 100 µg/l MOX. It counts as cell-based. As for the experimental part: (§1) The medium was prepared with one additive each. The evaluation of an increase in sensitivity and incubation time until complete discoloration of the negative control was performed by comparison with corresponding control medium, spore suspensions from the same batches and an equivalent number of spores.
(§2) Microbial test systems were prepared according to methods L 01.01-5 (January 2012) and L 01.00-11 (December 2002) ASU. 6.85 g BRT basis medium comprising about 1.5 g/l meat extract, about 3.0 g/l yeast extract, about 4.0 g/l casein peptone, about 6.0 g/l meat peptone, about 1.0 g/l D(+)-glucose, about 10 ml/l trimethoprim solution, and about 10 to […] dissolved in 250 ml distilled water and autoclaved.
(§3) The medium was tempered to 65 °C. 6.25 ml of sterile-filtered brilliant black solution (4 mg/ml, in dist. aqua) and medium additives and the spore suspension was added. The volume of spore suspension to be used was calculated on the basis of the desired spore number [cfu/ml] and the determined spore number of the spore suspension. The spore suspension was adjusted to a volume corresponding to 0.4 to 6 % v/v of the growth medium by dilution in Ringer's solution or by centrifugation (6,000 × g, RT, 10 min).
(§4) 100 µl growth medium per well was aliquoted into 96-well microtiter plates, the test system plates were solidified under the sterile bench for at least 30 min, the test system plates were sealed with adhesive foil and stored at 4 °C with the bottom surface facing upwards.

The test system of series [2] is G. stearothermophilus C953 (DSM 1550). As to the kind of experiment: BRT microbial test system with additives in the growth medium, G. stearothermophilus indicator strain. It counts as cell-based. Conditions: for longer incubation time until complete discoloration of the negative control: additive in growth medium: 200 µg/l CIP, 150 µg/l MOX, versus control plates. As for the experimental part: as §1, §2, §3, §4

Series [3] deals with A. pallidus MHI 3391. As to the kind of experiment: microbe, parasite or virus in culture.
The test system of series [4] is G. stearothermophilus C953 (DSM 1550). Briefly: microbe, parasite or virus in culture. Conditions: Geobacillus stearothermophilus, DSM1550.
Series [5] has as its system A. pallidus MHI 3391. Briefly: FQ-BRT test system, detection of inhibitors in spiked milk samples. Type of series: cell-based. The following applies: for detection at the detection level: incubation extended by two hours; for Detection at concentration: plates incubated for additional four hours relative to discoloration time of the negative control; for test result in the FQ-BRT: spiked milk samples at concentrations at the level of the respective MRL. As for the experimental part: A. pallidus MHI 3391 was used as the indicator bacteria, endospores were used with a spore count of 1.56 × 10^7 cfu/ml growth medium, the growth medium used was based on BRT basis medium comprising a brilliant black concentration of 100 mg/l, 100 µg/l MOX and 8000 µg/l 8-hydroxyquinoline, adjusted to a pH of 8.5. In the following, this test system will be referred to as FQ-BRT. The incubation of the FQ-BRT was carried out in a water bath at 61 ± 1 °C.
The detection limits determined during the photometric and visual evaluation of test plates are shown in Figure 8 based on positive and negative control (CCβ A and CCβ B) derived from quality curves generated using the logistic regression model.
Discoloration of the negative control on test plates of the FQ-BRT using an UHT milk negative control was observed after an incubation of 302 ± 35 min.

The conditions of series [6]: milk samples, after heating for 20 min at 120 °C; cited from earlier work.
For series [7], the system named is A. pallidus MHI 3391. Briefly: BRT test system with Ca-DPA-activated spore suspensions. Type of series: cell-based. The following applies: Ca-DPA-activated spores versus control plates. How it is done: (§5) 120 mM DPA stock solution was prepared in Tris-base and diluted in a 20-80 mM CaCl2 solution to obtain a Ca-DPA working solution before use. A spore suspension was adjusted to a specific spore count of 1.56 × 10^7 cfu/ml and a Ca-DPA concentration of 40 mM with Ca-DPA working solution and Ringer's solution. The spore suspension was incubated for 3 h in a thermal shaker at 55 °C and 350 rpm.

Series [8] concerns G. stearothermophilus C953 (DSM 1550). The series is described as above. Type of series: cell-based. The following applies: Ca-DPA-activated spores versus control plates. How it is done: as §5
The subject of the next series is A. pallidus MHI 3390. Described as above. Type of series: cell-based. The following applies: Ca-DPA-activated spores versus control plates. How it is done: as §5
Series [9] deals with A. thermoaerophilus MHI 3397. The description is as above. Conditions: Ca-DPA-activated spores versus control plates. Type of series: cell-based. How it is done: as §5
Series [10] concerns B. thermoamylovorans MHI 3373. The description is as above. Type of series: cell-based. The following applies: Ca-DPA-activated spores versus control plates without Ca-DPA activation. As for the experimental part:
as §5

[11] abbreviates: 8-hydroxyquinoline at 250, 500, 1000, 2000 and 4000 µg/l in basic growth medium.

For `Oc1cccc2cccnc12` [8-hydroxyquinoline], the “Incubation time reduced by” value with A. pallidus MHI 3391 [1] (8000 µg/l 8-hydroxyquinoline added to growth medium comprising 100 µg/l MOX) was 70 ± 16 min; in the series on A. pallidus MHI 3391 [1] (addition of 2000 µg/l 8-hydroxyquinoline to basic growth medium), 66 ± 0 min; in the series on A. pallidus MHI 3391 [1] (addition of 4000 µg/l 8-hydroxyquinoline to basic growth medium) it was 94 ± 7 min. Also, the “improvement in detection sensitivity” value (with A. pallidus MHI 3391 [1] (setting [11]); in series [2] (setting [11])) was “no improvement in detection sensitivity” each time. Also, the “decrease in incubation time” value in the series on A. pallidus MHI 3391 [1] (combination of 8000 µg/l 8-hydroxyquinoline and 100 µg/l CIP) is 17 ± 4 min. Moreover, the “reduction in incubation time” value in series [2] (addition of 8-hydroxyquinoline) was “not observed”. The results for the MIC (in the series with A. pallidus MHI 3391 [3]; in series [4]) were 8 µg/mL (≈ 55.1 µM) and 4 µg/mL (≈ 27.6 µM), respectively.

Regarding `O=C(O)c1cn(C2CC2)c2cc(N3CCNCC3)c(F)cc2c1=O` [CIP, ciprofloxacin], in the series with A. pallidus MHI 3391 [1], the “incubated longer than corresponding control plates” value came to 17 ± 7 min and the “Concentrations detected in spiked milk samples” value (from here on “Concentrations detected”) came to 50 µg/kg. Moreover, the concentration detected in the series on A. pallidus MHI 3391 [1] (growth medium with addition of 100 µg/l CIP) stood at 100 µg/kg. In [2] (additive in growth medium: 50 µg/l CIP, 75 µg/l MOX, 100 µg/l LEV), the “effect of addition to growth medium on detection sensitivity” value was “not associated with an increased sensitivity”. In series [2], the “longer incubation time until complete discoloration of the negative control” value turned out to be 32 ± 10 min. In addition, the “concentration detected in spiked milk samples” value in [2] (growth medium comprising 100 or 200 µg/l CIP, 100, 125 or 150 µg/l MOX, or 200 µg/l LEV) is 200 µg/kg. Moreover, in the series on A. pallidus MHI 3391 [5], the “detection at the detection level” value worked out at 100 µg/kg and the Detection at concentration is listed as 50 µg/kg.

Take `CN1C[C@@H]2C[C@H]1CN2c1cc2c(cc1F)c(=O)c(C(=O)O)cn2C1CC1` [DAN, danofloxacin]: the “Concentrations detected” value with A. pallidus MHI 3391 [1] was found to be 120 µg/kg.

Take `CCN1CCN(c2cc3c(cc2F)c(=O)c(C(=O)O)cn3C2CC2)CC1` [ENR, enrofloxacin]: the “Concentrations detected” value in the series on A. pallidus MHI 3391 [1] is reported as 100 µg/kg. For the same molecule, in the series on A. pallidus MHI 3391 [5], the “detection at the detection level” value is reported as 100 µg/kg and the Detection at concentration came to 100 µg/kg. The degradation in series [6] is given as 5%.

Consider `CN1CCN(c2c(F)cc3c(=O)c(C(=O)O)cn4c3c2OCN4C)CC1` [MAR, marbofloxacin], for which the “Concentrations detected” value with A. pallidus MHI 3391 [1] is reported as 75 µg/kg. Also, the detection sensitivity in the series on A. pallidus MHI 3391 [5] (incubation extended by three hours) is reported as 100 µg/kg. In addition, the “detection at the detection level” value with A. pallidus MHI 3391 [5] is reported as 75 µg/kg.

With `COc1c(N2C[C@@H]3CCCN[C@@H]3C2)c(F)cc2c(=O)c(C(=O)O)cn(C3CC3)c12` [MOX, moxifloxacin], the “incubated longer than corresponding control plates” value in the series on A. pallidus MHI 3391 [1] was 62 ± 31 min. For the same molecule, the “longer incubation time until complete discoloration of the negative control” value in series [2] amounted to 18 ± 0 min.

Turning to `CCN1CCN(C(=O)N[C@@H](C(=O)N[C@@H]2C(=O)N3C(C(=O)O)=C(CSc4nnnn4C)CS[C@H]23)c2ccc(O)cc2)C(=O)C1=O` [cefoperazone], the “test result in the FQ-BRT” value with A. pallidus MHI 3391 [5] is “intermediate test results”.

For the molecule `CO/N=C(\C(=O)N[C@@H]1C(=O)N2C(C(=O)[O-])=C(C[n+]3cccc4c3CCCC4)CS[C@H]12)c1csc(N)n1` [cefquinome], the “test result in the FQ-BRT” value with A. pallidus MHI 3391 [5] is “intermediate test results”.

Consider `Cc1onc(-c2c(Cl)cccc2Cl)c1C(=O)N[C@@H]1C(=O)N2[C@@H]1SC(C)(C)[C@@H]2C(=O)O` [dicloxacillin], for which, in the series on A. pallidus MHI 3391 [5], the “test result in the FQ-BRT” value is reported as “intermediate test results”.

On to `CCOc1ccc2ccccc2c1C(=O)N[C@@H]1C(=O)N2[C@@H]1SC(C)(C)[C@@H]2C(=O)O` [nafcillin], for which, in the series on A. pallidus MHI 3391 [5], the “test result in the FQ-BRT” value is listed as “intermediate test results”.

For the molecule `Cc1onc(-c2ccccc2)c1C(=O)N[C@@H]1C(=O)N2[C@@H]1SC(C)(C)[C@@H]2C(=O)O` [oxacillin], in the series on A. pallidus MHI 3391 [5], the “test result in the FQ-BRT” value is recorded as “intermediate test results”.

In the case of `CC[C@H]1OC(=O)C[C@@H](O)[C@H](C)[C@@H](O[C@@H]2O[C@H](C)[C@@H](O[C@H]3C[C@@](C)(O)[C@@H](O)[C@H](C)O3)[C@H](N(C)C)[C@H]2O)[C@@H](CC=O)C[C@@H](C)C(=O)/C=C/C(C)=C/[C@@H]1CO[C@@H]1O[C@H](C)[C@@H](O)[C@@H](OC)[C@H]1OC` [tylosin], the “test result in the FQ-BRT” value in the series on A. pallidus MHI 3391 [5] is given as “positive test result”.

In the case of calcium dipicolinic acid [Ca-DPA], the results for the “increase in incubation time, mean difference” value (with A. pallidus MHI 3391 [7]; in series [8]; with A. pallidus MHI 3390) were 164 ± 52 min, 139 ± 42 min and 139 ± 29 min, respectively. Moreover, in [9], the “effect on incubation duration” value was “No effect on incubation duration”. In [10], this molecule registered a shorter incubation time of 23 ± 2 min.

Take gentamicin: the “test result in the FQ-BRT” value with A. pallidus MHI 3391 [5] is “positive test result”.

Turning to neomycin, the “test result in the FQ-BRT” value in the series on A. pallidus MHI 3391 [5] is “positive test result”.
